In brackets after ≈: the same amount, converted by molar mass. Activity calls are given as the source filed them. The rule behind the calls is not given here.
Columns and labels:
MDBK441 [1] = assay: Compound was tested for inhibition of the growth of Eimeria tenella in MDBK 441 cell line; type: functional; conditions: Bos taurus
MDBK441 [2] = assay: Compound was tested for inhibition of the growth of Eimeria tenella in MDBK 441 cell line up to concentration 25 uM; no inhibition; type: functional, cell-based; conditions: Bos taurus

| SMILES | MIC (MDBK441 [1]) [µM] | MIC (MDBK441 [2]) |
| --- | --- | --- |
| COC(=O)/C=C/C=C/[C@@H]1[C@H]2[C@H](C)[C@@H](O)C(C)C[C@]2(C)C=C[C@@H]1C (stereo partly drawn) | 1.5 (≈ 0.478 µg/mL) |  |
| COC(=O)CCCC[C@@H]1[C@H]2[C@H](C)[C@@H](O)C(C)C[C@]2(C)CC[C@@H]1C (stereo partly drawn) |  | inactive |
| CC1C[C@]2(C)C=C[C@H](C)[C@H](/C=C/C=C/C(=O)O)[C@H]2[C@H](C)[C@H]1O (stereo partly drawn) |  | inactive |

From ChEMBL document CHEMBL1130699, “Coprophilin: an anticoccidial agent produced by a dung inhabiting fungus” (1998)
